One assay deals with tomatoes. The assay can be described thus: Tomato ripening after ethylene treatment. In kind it is in vivo, tomatoes (Lycopersicon esculentum). Particulars: applied for 12 hours before the ethylene treatment. How it is done:
Tomato seeds were washed with NaOCl (10%) and rinsed with water. The seeds were placed on wetted filter paper with 10 mM sodium phosphate buffer at pH 5.8. The germination was done in the dark. When the seedlings were about 1 mm height, 30 seeds by sample were placed on wet filter paper in a 0.5 l jar. 1-Methylcyclopropene was added over 24 hours before adding 10 μl/l ethylene for 5 days.
When 1-methylcyclopropene was applied for 12 hours before the ethylene treatment, only 10 nl/l of compound was enough to preserve tomatoes.

The test system of assay [1] is carnations. Description: Stopping the senescent process (petal in-rolling) of carnations due to exogenous and endogenous ethylene. In kind it is in vivo, carnation (Dianthus caryophyllus). Here is the method:
Flowers in a pre-senescent stage were treated with 5 nl/l of 1-methylcyclopropene and the senescent process was observed.
The carnations need to have an exogenous ethylene exposure at least for 6 hours to have a visible sign of senescence. Treatment with 3 nl/l of 1-methylcyclopropene is enough to stop that process. […] 1-methylcyclopropene seems to reduce and prevent the autocatalytic production of ethylene.
The ability of 1-methylcyclopropene to stop the senescence process was observed by adding ethylene over 6 hours. […] Thereafter 1-methylcyclopropene was added. The process of senescence was stopped by the binding of 1-methylcyclopropene on the ethylene receptor and giving a molecular response.

Assay [2] relates to carnations. Description: Protection of in vivo cut carnations against exogenous ethylene (pre-treatment with compound). Further details: species or system carnation (Dianthus caryophyllus). How it is done: The treatment of carnations with ethylene hastens the process of senescence, producing a petal in-rolling phenomena (Halevy and Mayak, 1981). Carnations at stage II, with low ethylene production and no visible signs of senescence (Woodson, 1987) were treated with 1-methylcyclopropeneat different concentration for 6 hours before adding […] of ethylene for 1 hour.
1-Methylcyclopropene was added for various times before the application of exogenous ethylene. […] Treatment with about 250 to 300 nl/l of 1-methylcyclopropene for five minutes was enough to protect the flowers. Treated for 24 hours, with 0.5 nl/l protected against 1 ml/l of ethylene.
Flowers were treated with 5 nl/l of product during 6 hours, then, stored for 10 days at room temperature. One ml/l of ethylene was then added over 18 hours. Ethylene had no effect on the treated carnations 10 days after the 1-methylcyclopropene treatment (data not shown). The binding of 1-methylcyclopropene on carnations seems to be irreversible.
Cut carnations at stage I and stage III were treated with 1-methylcyclopropene. For young carnations, the concentration of 1-methylcyclopropene giving a protective effect was about 1.25 and 2.5 nl/l. For these, the protection against ethylene was total. For old carnations, rates between 2.5 and 5 nl/l of 1-methylcyclopropene were sufficient to give a response, but total protection was not achieved. Total protection of older carnations was only achieved with 10 nl/l of 1-methylcyclopropene (data not shown).

For the next assay, the target named is Bananas. Description: Banana ripening (chlorophyll disappearance). In kind it is in vivo, bananas (Musa sapientum). Here is the method: Bananas were individually placed in a 3 l jar. 1-Methylcyclopropene was injected into the jar at a determined concentration. The plant material was then aerated and 1 ml/l of ethylene was added for 12 hours. Controls were held in jars without chemical treatment. Chlorophyll measurement was made as previously described in Sisler and Wood, 1988). The experiment was done 7 days after 1-methylcyclopropene treatment.

Assay [3] relates to ethylene receptor. Description: 14C-ethylene binding to carnation petals. Details: species or system carnation (Dianthus caryophyllus). To be noted: flowers treated with 5 nl/l, stored 4 days at room temperature at 4° C. before binding experiment (FIG. 4). Here is the method: Triplicate samples of 3 g cut carnations' petals were placed in a 2.51 desiccator containing ^14 C-ethylene-mercuric perchlorate complex (110 mCi/mM) in a 25 ml Erlenmeyer flask. Then, an excess of […] lithium chloride was added to the ethylene-mercuric perchlorate complex to release the gaseous ethylene. The mixture was stirred for 6 minutes. To determine the amount of binding, 3 ml of unlabelled ethylene was added in one desiccator. After 2 hours of ethylene exposure, the desiccators were opened and the samples were aerated for 4 minutes. Each sample was then placed in a 250 ml jar. 0.2 Ml of mercuric perchlorate on a 0.5 cm^2 piece of fiber-glass filter in a scintillation vial was then added. After 18 hours, the scintillation vials were removed, scintillation fluid added and the radioactivity counted for each sample.
To determine if the 1-methylcyclopropene acted on the ethylene receptor, flowers were treated with 5 nl/l of 1-methylcyclopropene and stored for 4 days at room temperature at 4° C. before the ethylene binding experiment. Carnation petals preincubated with 1-methylcyclopropene and control petals which had not been incubated with 1-methylcyclopropene were then incubated in the presence of ^14 C-ethylene. One sample representing the control was incubated with a saturating concentration of unlabelled ethylene in the presence of ^14 C-ethylene. […]

Assay [4] deals with carnations. The assay can be described thus: Ethylene production of carnation flowers. Particulars: compound applied at the ethylene climacteric; thereafter ethylene production measured. In kind it is in vivo, carnation (Dianthus caryophyllus). How it is done:
Ethylene production was followed from the beginning of the ethylene climacteric production. […] 1- Methylcyclopropene was applied. Thereafter ethylene production was measured.

Assay [5] relates to ethylene receptor. The assay can be described thus: Diffusion of 3H 1-methylcyclopropene from carnation petals. In kind it is binding, carnation (Dianthus caryophyllus). Here is the method: In order to label the ethylene receptor, 1-methylcyclopropene was labelled with tritium and the specific activity obtained was 60 mCi/mM. An eventual diffusion of the compound was studied on carnations. The flowers were treated with 1-methylcyclopropene, and with large amounts of ethylene. Control flowers were treated with 1-methylcyclopropene alone. The diffusion was followed for 7 days. […] When the experiment was made at 4° C., the diffusion was nonexistent.

Turning to `CC1=CC1` [1-methylcyclopropene], in the assay with tomatoes, the “concentration enough to preserve tomatoes” value is 10 nl/l. For the same compound, the “senescent process of flowers treated in a pre-senescent stage” value with carnations [1] (5 nl/l, observed 15 days later, untreated control in-rolled one day later) is given as “did not show a senescent process”. In addition, the “concentration enough to stop the senescence process due to exogenous ethylene exposure” value in the assay with carnations [1] (after exogenous ethylene exposure of at least 6 hours) was found to be 3 nl/l. Further, the “process of senescence after in-rolling had begun” value in the assay with carnations [1] (ethylene over 6 hours, in-rolling begun, thereafter compound added) was “stopped”. The “petal in-rolling of carnations treated with ethylene and then compound” value with carnations [1] (ethylene, then 1-methylcyclopropene) is “no visible sign of the phenomenon”. Moreover, in the assay on carnations [2] (5 nl/l for 6 hours, stored 10 days at room temperature, then 1 ml/l ethylene over 18 hours), the “effect of ethylene on treated carnations 10 days after treatment” value is reported as “no effect”. Besides, the “minimal concentration preventing the ethylene process, compared with that at the other ethylene levels” value with carnations [2] (flowers treated with 1 ml/l of ethylene) is on record as “the same”. In addition, the “concentration to protect the flower against ethylene action, compared with STS, DACP or NBD” value in the assay on carnations [2] (in vivo carnations) is on record as “much lower”. In addition, the “concentration achieving total protection” value in the assay on carnations [2] (old cut carnations (stage III)) worked out at 10 nl/l. The “minimal concentration preventing the ethylene process (flowers looked like control without ethylene)” value with carnations [2] (stage II carnations, 6 hours treatment before 10 or 1000 ml/l ethylene for 1 hour, after 4 days) is 2.5 nl/l. Further, in the assay on carnations [2] (treated for 24 hours, against 1 ml/l of ethylene), the “concentration needed to protect the flowers against exogenous ethylene” value was found to be 0.5 nl/l. Further, the “extent of protection against ethylene” value in the assay on carnations [2] (young cut carnations (stage I), about 1.25 and 2.5 nl/l) is given as “total”. Further, the “Ki (chlorophyll measurement)” value at Bananas (1 ml/l ethylene for 12 hours, measured 7 days after treatment) is 0.4 nl/l. Also, the “Ki for chlorophyll disappearance” value on Bananas (experiments done in the dark) stood at 40 ul/l; at Bananas (experiments done in the light), 1.2 ul/l. Further, the “time for which ripening was prevented” value with Bananas (treated bananas, fruits turned brown after this period) is “about 15 days”. Also, in the assay with ethylene receptor [3], the “specific 14C-ethylene binding” value is recorded as “totally inhibited”. In the assay on carnations [4], the “ethylene production, control versus treated flowers (FIG. 3)” value was “considerably lower”.
`CC1=CC1` [^3 H 1-methylcyclopropene]: the “diffusion of the labelled compound from carnations” value was “nonexistent” in the assay with ethylene receptor [5] (experiment made at 4° C.) and “a little diffusion” in the assay with ethylene receptor [5] (followed for 7 days, flowers without ethylene treatment).

The record behind these values is patent publication US5518988A, “Method of counteracting an ethylene response in plants” (North Carolina State University, priority 1994, dated 1996).
